Marks after values point to notes of the source that are not given here.
Experiments:
Format in all cases: in vivo
[1] = system: PCOS induced by letrozole in female Wistar rats; assay: Body weight in letrozole-induced PCOS
Method: (§1) Animals and Experimental design: Animals were housed under standard air-conditioned laboratory conditions. The temperature was maintained at maximum: 24° C. and a minimum of 23° C. and Relative humidity at maximum: 63% and a minimum of 48% with 12 h light and 12 h dark cycle. The maximum and minimum temperature and relative humidity in the experimental room were recorded once daily. Female virgin Wistar rats (150-200 g) was checked daily for 4-day ovarian cycle using vaginal cytology. PCOS was induced by oral administration of aromatase inhibitor, letrozole (1 mg/kg) dissolved in 0.5% CMC (2 mg/kg) for 21 days. During the experiment, the estrous cycle was monitored by the analyses of relative proportion of leukocytes, epithelial and cornified cells in vaginal smears. Following letrozole administration, test samples were administered to animals from day 22 to day 36. After treatment protocol, animal from all groups (Table 1) were fasted overnight and anesthetized with diethylether/halothane. The blood was collected by retino-orbital puncture, then serum was separated by centrifugation followed by estimation of hormones and other biochemical parameters using commercially available ELISA kits. The serum hormone levels, body weight and ovary weigh of the animals were assessed to ascertain the effective dose.

[2] = system: PCOS induced by letrozole in female Wistar rats; assay: Ovarian weight in letrozole-induced PCOS; details: day 22 to day 36
Method: as §1

[3] = system: PCOS induced by letrozole in female Wistar rats; assay: Serum hormonal levels (17-β estradiol, progesterone, FSH, LH) in letrozole-induced PCOS; details: day 22 to day 36
Method: as §1

[4] = system: PCOS induced by letrozole in female Wistar rats; assay: Thyroid function analysis (serum T3, T4, TSH) in PCOS
Method: Animals and Experimental design: Animals were housed under standard air-conditioned laboratory conditions. The temperature was maintained at maximum: 24° C. and a minimum of 23° C. and Relative humidity at maximum: 63% and a minimum of 48% with 12 h light and 12 h dark cycle. The maximum and minimum temperature and relative humidity in the experimental room were recorded once daily. Female virgin Wistar rats (150-200 g) was checked daily for 4-day ovarian cycle using vaginal cytology. PCOS was induced by oral administration of aromatase inhibitor, letrozole (1 mg/kg) dissolved in 0.5% CMC (2 mg/kg) for 21 days. During the experiment, the estrous cycle was monitored by the analyses of relative proportion of leukocytes, epithelial and cornified cells in vaginal smears.
Following letrozole administration, test samples were administered to animals from day 22 to day 36. After treatment protocol, animal from all groups (Table 1) were fasted overnight and anesthetized with diethylether/halothane. The blood was collected by retino-orbital puncture, then serum was separated by centrifugation followed by estimation of hormones and other biochemical parameters using commercially available ELISA kits.
Based on the above results, the following groups were taken for further analysis BDMC 25 mg/kg p.o. • BDMC 50 mg/kg p.o. • AC3 100 mg/kg p.o. • AC3 200 mg/kg p.o.
The following molecular targets were assessed: • 1. Thyroid Function analysis • 2. Effect on androgen profile • 3. Effect on serum adiponectin levels • 4. Insulin resistance • 5. Effect on Serum Paraoxonase 1 Activity • 6. Effect of gut microbiota • 7. Oxidative stress and inflammatory markers Thyroid Function Analysis

## O=C(/C=C/c1ccc(O)cc1)CC(=O)/C=C/c1ccc(O)cc1 [BDMC, bisdemethoxycurcumin]
[1]; 3.12 mg/kg from day 22, Day 28 (PCOS + Treatment)
  Average body weight: 202 ± 4.15 g
[1]; 3.12 mg/kg from day 22, Day 36 (PCOS + Treatment)
  Average body weight: 200 ± 6.36 g
[1]; 3.12 mg/kg group, Day 1 (PCOS induction, before treatment)
  Average body weight: 158 ± 6.16 g
[1]; 3.12 mg/kg group, Day 7 (PCOS induction, before treatment)
  Average body weight: 175 ± 5.27 g
[1]; 3.12 mg/kg group, Day 14 (PCOS induction, before treatment)
  Average body weight: 194 ± 5.77 g
[1]; 3.12 mg/kg group, Day 21 (PCOS induction, before treatment)
  Average body weight: 210 ± 7.58 g
[1]; 6.25 mg/kg from day 22, Day 28 (PCOS + Treatment)
  Average body weight: 201 ± 6.88 g
[1]; 6.25 mg/kg from day 22, Day 36 (PCOS + Treatment)
  Average body weight: 198 ± 6.45 g
[1]; 6.25 mg/kg group, Day 1 (PCOS induction, before treatment)
  Average body weight: 157 ± 8.15 g
[1]; 6.25 mg/kg group, Day 7 (PCOS induction, before treatment)
  Average body weight: 175.3 ± 4.5 g
[1]; 6.25 mg/kg group, Day 14 (PCOS induction, before treatment)
  Average body weight: 195.5 ± 6.6 g
[1]; 6.25 mg/kg group, Day 21 (PCOS induction, before treatment)
  Average body weight: 215 ± 5.78 g
[1]; 12.5 mg/kg from day 22, Day 28 (PCOS + Treatment)
  Average body weight: 200 ± 6.57 g
[1]; 12.5 mg/kg from day 22, Day 36 (PCOS + Treatment)
  Average body weight: 196 ± 5.26 g
[1]; 12.5 mg/kg group, Day 1 (PCOS induction, before treatment)
  Average body weight: 158 ± 7.88 g
[1]; 12.5 mg/kg group, Day 7 (PCOS induction, before treatment)
  Average body weight: 174 ± 2.83 g
[1]; 12.5 mg/kg group, Day 14 (PCOS induction, before treatment)
  Average body weight: 202.5 ± 8.12^ g
[1]; 12.5 mg/kg group, Day 21 (PCOS induction, before treatment)
  Average body weight: 212 ± 6.36 g
[1]; 25 mg/kg from day 22, Day 28 (PCOS + Treatment)
  Average body weight: 201 ± 5.54 g
[1]; 25 mg/kg from day 22, Day 36 (PCOS + Treatment)
  Average body weight: 191 ± 5.84 g
[1]; 25 mg/kg group, Day 1 (PCOS induction, before treatment)
  Average body weight: 157.5 ± 8.16^ g
[1]; 25 mg/kg group, Day 7 (PCOS induction, before treatment)
  Average body weight: 172 ± 6.46 g
[1]; 25 mg/kg group, Day 14 (PCOS induction, before treatment)
  Average body weight: 190.5 ± 4.44^ g
[1]; 25 mg/kg group, Day 21 (PCOS induction, before treatment)
  Average body weight: 210 ± 5.12 g
[1]; 50 mg/kg from day 22, Day 28 (PCOS + Treatment)
  Average body weight: 199 ± 8.15 g
[1]; 50 mg/kg from day 22, Day 36 (PCOS + Treatment)
  Average body weight: 192 ± 6.36 g
[1]; 50 mg/kg group, Day 1 (PCOS induction, before treatment)
  Average body weight: 157 ± 6.13 g
[1]; 50 mg/kg group, Day 7 (PCOS induction, before treatment)
  Average body weight: 168 ± 5.47 g
[1]; 50 mg/kg group, Day 14 (PCOS induction, before treatment)
  Average body weight: 190 ± 10.42 g
[1]; 50 mg/kg group, Day 21 (PCOS induction, before treatment)
  Average body weight: 211 ± 7.58 g
[2]; 3.12 mg/kg
  Ovarian weight: 63.88 ± 2.19 mg
[2]; 6.25 mg/kg
  Ovarian weight: 59.64 ± 2.32 mg
[2]; 12.5 mg/kg
  Ovarian weight: 54.36 ± 2.80 mg
[2]; 25 mg/kg
  Ovarian weight: 47.88 ± 2.76 mg
[2]; 50 mg/kg
  Ovarian weight: 48.54 ± 2.42 mg
[3]; 3.12 mg/kg
  Serum hormonal levels 17-β estradiol: 16.89 ± 3.01 pg/mL
  Serum hormonal levels FSH: 10.54 ± 1.44 mIU/mL
  Serum hormonal levels LH: 26.33 ± 3.02 mIU/mL
  Serum hormonal levels Progesterone: 18.67 ± 1.03 ng/mL
[3]; 6.25 mg/kg
  Serum hormonal levels 17-β estradiol: 18.22 ± 2.44 pg/mL
  Serum hormonal levels FSH: 10.98 ± 1.52 mIU/mL
  Serum hormonal levels LH: 27.32 ± 2.30 mIU/mL
  Serum hormonal levels Progesterone: 20.56 ± 1.09 ng/mL
[3]; 12.5 mg/kg
  Serum hormonal levels 17-β estradiol: 18.89 ± 1.65 pg/mL
  Serum hormonal levels FSH: 12.58 ± 1.08 mIU/mL
  Serum hormonal levels LH: 24.36 ± 2.11 mIU/mL
  Serum hormonal levels Progesterone: 23.50 ± 2.21 ng/mL
[3]; 25 mg/kg
  Serum hormonal levels 17-β estradiol: 22.50 ± 1.67 pg/mL
  Serum hormonal levels FSH: 13.28 ± 1.34 mIU/mL
  Serum hormonal levels LH: 21.54 ± 1.26 mIU/mL
  Serum hormonal levels Progesterone: 26.95 ± 1.53 ng/mL
[3]; 50 mg/kg
  Serum hormonal levels 17-β estradiol: 21.26 ± 2.32 pg/mL
  Serum hormonal levels FSH: 13.07 ± 1.36 mIU/mL
  Serum hormonal levels LH: 22.78 ± 1.76 mIU/mL
  Serum hormonal levels Progesterone: 26.28 ± 1.22 ng/mL
[4]; 25 mg/kg p.o.
  Serum hormonal levels T3: 3.3 ± 0.18 μIU/ml
  Serum hormonal levels T4: 11.78 ± 0.39 μIU/ml
  Serum hormonal levels TSH: 5.28** nmol/L
[4]; 50 mg/kg p.o.
  Serum hormonal levels T3: 3.05 ± 0.17 μIU/ml
  Serum hormonal levels T4: 10.45 ± 0.27 μIU/ml
  Serum hormonal levels TSH: 7.12** nmol/L
